Patent EP4620956A1, “PARP1 INHIBITORS” (Zhejiang Yangli Pharmaceutical Technology Co., Ltd., priority 2022, dated 2024)

Tests used:
PARP1 = target: T1, PARP1 (Homo sapiens, UniProt P09874); experiment: Inhibition of PARP1 enzyme activity (chemiluminescence); format: biochemical
T1 construct: purchased BPS 80501

DLD-1 BRCA2^-/- = experiment: Anti-proliferative activity (CellTiter-Glo, 7 days), DLD-1 BRCA2-/-; format: cell-based, human
PARP3 = target: T2, PARP3 (Homo sapiens, UniProt Q9Y6F1); experiment: Inhibition of PARP3 enzyme activity (chemiluminescence); format: biochemical
T2 construct: purchased BPS 80503
T2 sequence (Q9Y6F1 1-533): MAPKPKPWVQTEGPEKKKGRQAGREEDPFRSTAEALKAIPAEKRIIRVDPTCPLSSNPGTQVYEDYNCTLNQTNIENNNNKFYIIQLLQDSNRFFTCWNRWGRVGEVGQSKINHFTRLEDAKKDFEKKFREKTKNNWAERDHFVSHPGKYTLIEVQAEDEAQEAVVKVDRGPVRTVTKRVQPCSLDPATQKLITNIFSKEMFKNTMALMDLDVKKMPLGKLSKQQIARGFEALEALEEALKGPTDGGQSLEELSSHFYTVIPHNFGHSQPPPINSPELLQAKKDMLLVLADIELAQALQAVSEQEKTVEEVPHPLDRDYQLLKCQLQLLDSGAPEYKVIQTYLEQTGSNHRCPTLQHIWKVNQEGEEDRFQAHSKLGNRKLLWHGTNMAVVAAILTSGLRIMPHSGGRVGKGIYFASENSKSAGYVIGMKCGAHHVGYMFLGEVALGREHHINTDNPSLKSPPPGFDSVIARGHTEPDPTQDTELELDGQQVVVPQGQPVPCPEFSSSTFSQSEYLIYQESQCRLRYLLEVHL

PARP11 = target: T3, PARP11 (Homo sapiens, UniProt Q9NR21); experiment: Inhibition of PARP11 enzyme activity (chemiluminescent assay kit); format: biochemical
T3 construct: purchased BPS 80511
T3 sequence (Q9NR21 1-338): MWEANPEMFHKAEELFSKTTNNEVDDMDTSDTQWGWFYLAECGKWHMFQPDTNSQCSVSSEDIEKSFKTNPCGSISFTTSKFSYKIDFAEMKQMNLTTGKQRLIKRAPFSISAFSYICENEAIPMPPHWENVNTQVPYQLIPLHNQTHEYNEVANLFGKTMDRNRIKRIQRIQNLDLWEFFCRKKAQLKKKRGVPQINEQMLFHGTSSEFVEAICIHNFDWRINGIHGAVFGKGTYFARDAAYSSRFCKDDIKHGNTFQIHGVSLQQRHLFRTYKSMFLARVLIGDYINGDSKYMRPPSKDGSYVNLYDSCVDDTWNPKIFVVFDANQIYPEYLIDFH

PARP2 = target: T4, PARP2 (Homo sapiens, UniProt Q9UGN5); experiment: PARP2-DNA trapping, fluorescence polarization (FP); format: biochemical
T4 construct: purchased BPS 80502
T4 sequence (Q9UGN5 whole entry): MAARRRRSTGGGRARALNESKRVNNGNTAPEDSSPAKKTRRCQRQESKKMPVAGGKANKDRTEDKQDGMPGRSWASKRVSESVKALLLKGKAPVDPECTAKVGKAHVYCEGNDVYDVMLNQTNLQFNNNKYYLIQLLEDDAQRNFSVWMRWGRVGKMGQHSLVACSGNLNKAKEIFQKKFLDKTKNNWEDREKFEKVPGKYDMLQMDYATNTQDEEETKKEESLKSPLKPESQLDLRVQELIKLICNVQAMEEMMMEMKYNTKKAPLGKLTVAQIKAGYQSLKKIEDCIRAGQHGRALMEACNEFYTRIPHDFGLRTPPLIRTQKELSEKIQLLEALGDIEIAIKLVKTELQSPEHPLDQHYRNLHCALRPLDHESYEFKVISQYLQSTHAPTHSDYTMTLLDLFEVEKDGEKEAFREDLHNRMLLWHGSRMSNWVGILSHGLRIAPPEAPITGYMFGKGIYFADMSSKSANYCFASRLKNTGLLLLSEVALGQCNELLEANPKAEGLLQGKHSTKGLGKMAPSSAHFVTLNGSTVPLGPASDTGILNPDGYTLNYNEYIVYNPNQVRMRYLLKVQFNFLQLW

cleaved caspase-3 = experiment: Cleaved caspase-3 in MDA-MB-436 xenograft tumour tissues (immunoblotting); format: in vivo, mice; settings: 10 days of treatment, 0.25 hours and 24 hours after the last administration, FIG. 5 and 6
Description: The pro-apoptotic effect of the compounds was further verified in vivo. The changes of cleaved caspase-3 in subcutaneous xenograft tumour tissues of MDA-MB-436 mice were detected by immunoblotting. After 10 days of treatment with different compounds, the animals were euthanized 0.25 hours and 24 hours after the last administration, and the tumour tissues were obtained for analysis. The rapidly frozen tumour tissues were placed on dry ice, 350 µL of complete cell lysis buffer (containing 1% protease inhibitors and phosphatase inhibitors) was added, the tissues were disrupted using Tissue grinder for 5 minutes, and the tissue lysate was placed on ice for 30 minutes. Centrifugation was performed at 12,000 rpm and 4°C for 10 minutes, the supernatant was placed in a new 1.5 mL centrifuge tube, and protein quantification was carried out using a BCA quantification kit. According to the quantitative results, the sample protein concentration was uniformly adjusted to 2 µg/µL, LDS loading buffer (4X) and sample reducing agent (10X) were added, and the samples were heated at a constant temperature of 100°C for 10 minutes. For Western blotting, 10 µL of sample was loaded into each well of an SDS-PAGE gel, and electrophoresis was performed at 80 V for 30 minutes, followed by 120 V for 90 minutes. […] The membrane was then cut according to the molecular weights of the proteins to be detected. […]

[1] = ratio relative to the PARP1 enzyme activity

T1 sequence (P09874 whole entry): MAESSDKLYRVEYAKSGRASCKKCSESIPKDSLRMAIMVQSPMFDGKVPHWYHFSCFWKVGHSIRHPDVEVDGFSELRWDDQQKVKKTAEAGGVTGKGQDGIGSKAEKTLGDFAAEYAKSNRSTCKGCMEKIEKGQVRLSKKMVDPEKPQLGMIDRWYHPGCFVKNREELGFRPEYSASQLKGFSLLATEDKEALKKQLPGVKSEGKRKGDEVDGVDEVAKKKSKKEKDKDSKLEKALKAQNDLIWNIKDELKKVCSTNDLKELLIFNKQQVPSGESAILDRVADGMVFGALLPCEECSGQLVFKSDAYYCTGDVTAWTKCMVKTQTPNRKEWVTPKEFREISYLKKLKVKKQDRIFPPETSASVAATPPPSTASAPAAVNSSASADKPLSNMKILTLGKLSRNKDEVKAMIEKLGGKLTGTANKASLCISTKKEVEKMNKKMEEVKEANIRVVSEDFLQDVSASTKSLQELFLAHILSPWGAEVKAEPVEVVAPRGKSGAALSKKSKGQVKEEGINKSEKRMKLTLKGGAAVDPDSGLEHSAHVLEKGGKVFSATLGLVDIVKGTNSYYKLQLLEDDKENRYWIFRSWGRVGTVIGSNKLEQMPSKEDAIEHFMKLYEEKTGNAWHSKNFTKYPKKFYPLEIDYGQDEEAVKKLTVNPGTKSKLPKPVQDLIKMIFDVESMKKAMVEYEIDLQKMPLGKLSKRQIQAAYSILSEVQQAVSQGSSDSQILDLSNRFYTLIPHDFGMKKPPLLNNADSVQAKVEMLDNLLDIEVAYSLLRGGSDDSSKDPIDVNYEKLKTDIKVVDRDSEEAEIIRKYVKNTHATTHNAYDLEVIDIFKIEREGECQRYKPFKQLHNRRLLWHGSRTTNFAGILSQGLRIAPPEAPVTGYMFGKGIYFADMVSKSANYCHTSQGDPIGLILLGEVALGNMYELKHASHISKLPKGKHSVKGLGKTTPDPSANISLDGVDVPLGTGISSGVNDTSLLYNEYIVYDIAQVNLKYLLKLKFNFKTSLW

[2H]C([2H])([2H])NC(=O)c1ccc(N2CCN(Cc3cnc4c(N)c(CC)c(=O)[nH]c4c3)CC2)c(F)n1 [Example 4, 5-(4-((8-Amino-7-ethyl-6-oxo-5,6-dihydro-1,5-naphthyridin-3-yl)methyl)piperazin-1-yl)-6-fluoro-N-(methyl-d3)picolinamide]
IC50 (PARP1): 0.00048 µM
PARP1/2 selectivity fold (PARP1; PARP2 vs PARP1): 39 fold
BRCA2 mutation/WT selectivity fold (DLD-1 BRCA2^-/-; DLD-1 WT vs DLD-1 BRCA2^-/-): >2,178 fold
IC50 (DLD-1 BRCA2^-/-; Homo sapiens, DLD-1, 168 h, BRCA2-mutated, 7 days): 0.00459 µM
IC50 (PARP3; enzyme activity): 7.65 µM
PARP3 multiple vs PARP1 (PARP3; [1]): 15,929
IC50 (PARP11; enzyme activity): 0.422 µM
PARP11 multiple vs PARP1 (PARP11; [1]): 880
Bottom (PARP2; PARP2, 0.25 hour): 4.3
EC50 (PARP2; PARP2, 0.25 hour): 2.33 µM
Hillslope (PARP2; PARP2, 0.25 hour): 1.4
Top (PARP2; PARP2, 0.25 hour): = 100.0
Bottom (PARP2; PARP2, 0.5 hour): 1.0
EC50 (PARP2; PARP2, 0.5 hour): 5.47 µM
Hillslope (PARP2; PARP2, 0.5 hour): 1.9
Top (PARP2; PARP2, 0.5 hour): = 100.0
Bottom (PARP2; PARP2, 1 hour): 0.8
EC50 (PARP2; PARP2, 1 hour): > 10 µM
Hillslope (PARP2; PARP2, 1 hour): 2.1
Top (PARP2; PARP2, 1 hour): = 100.0
EC50 (PARP2; PARP2, 2 hour): > 10 µM
EC50 (PARP2; PARP2, 4 hour): > 10 µM
EC50 (PARP2; PARP2, 8 hour): > 10 µM
EC50 (PARP2; PARP2, 24 hour): > 10 µM
EC50 (PARP2; PARP2, 48 hour): > 10 µM
cleaved caspase-3 in tumour tissues (cleaved caspase-3): induced an increase in cleaved caspase-3
